From patent US4272437A, “Antibacterial agents, and 4-thio azetidinone intermediates” (priority 1979, dated 1981)
≈ marks a conversion by molar mass, not a printed value.

Key:
Ent. cloacae A-9659 = assay: MIC, tube dilution, Enterobacter cloacae A9659; type: cell-based; conditions: Enterobacter cloacae, A9659, Enterobacter cloacae A9659; overnight 37° C.; read-out: Minimum Inhibitory Concentration (M.I.C.)
From the text: (§1) Representative compounds of the present invention were subjected to in vitro antibiotic screening against a variety of microorganisms.

K. pneumoniae A-15130 = assay: MIC, tube dilution, Klebsiella pneumoniae A15130; type: cell-based; conditions: Klebsiella pneumoniae, A15130, K. pneumoniae A15130; overnight 37° C.; read-out: Minimum Inhibitory Concentration (M.I.C.)
From the text: as §1

Pr. mirabilis A-9900 = assay: MIC, tube dilution, Proteus mirabilis A9900; type: cell-based; conditions: Proteus mirabilis, A9900, Proteus mirabilis A9900; overnight 37° C.; read-out: Minimum Inhibitory Concentration (M.I.C.)
From the text: as §1

E. coli A-15119 = assay: MIC, tube dilution, Escherichia coli A15119; type: cell-based; conditions: Escherichia coli, A15119, E. coli A15119; overnight 37° C.; read-out: Minimum Inhibitory Concentration (M.I.C.)
From the text: as §1

Str. faecalis A-20688 = assay: MIC, tube dilution, Streptococcus faecalis A20688; type: cell-based; conditions: Enterococcus faecalis, A20688, Str. faecalis A20688; overnight 37° C.; read-out: Minimum Inhibitory Concentration (M.I.C.)
From the text: as §1

[1] = tested on: Klebsiella species A20468; assay: MIC, tube dilution, Klebsiella species A20468; type: cell-based; conditions: Klebsiella species (K. pneumoniae) A20468; overnight 37° C.; read-out: Minimum Inhibitory Concentration (M.I.C.)
From the text: as §1

Str. pyogenes A-9604 = assay: MIC, tube dilution, Streptococcus pyogenes A9604; type: cell-based; conditions: Streptococcus pyogenes, A9604, Str. pyogenes A9604; overnight 37° C., Nutrient Broth; read-out: Minimum Inhibitory Concentration (M.I.C.)
From the text: as §1

Ps. aeruginosa A-9843A = assay: MIC, tube dilution, Pseudomonas aeruginosa A9843A; type: cell-based; conditions: Pseudomonas aeruginosa, A9843A, read-out: Minimum Inhibitory Concentration (M.I.C.), Pseudomonas aeruginosa A9843A; overnight 37° C.
From the text: as §1

Proteus rettgeri A21203 = assay: MIC, tube dilution, Proteus rettgeri A21203; type: cell-based; conditions: Providencia rettgeri, A21203, Proteus rettgeri A21203; overnight 37° C.; read-out: Minimum Inhibitory Concentration (M.I.C.)
From the text: as §1

E. coli A-20341-1 = assay: MIC, tube dilution, Escherichia coli A20341-1; type: cell-based; conditions: Escherichia coli, A203411, E. coli A20341-1; overnight 37° C.; read-out: Minimum Inhibitory Concentration (M.I.C.)
From the text: as §1

[2] = tested on: Staph. aureus (Meth-Res) A-15097; assay: MIC, tube dilution, Staphylococcus aureus A15097 (Meth-Res); type: cell-based; conditions: Staphylococcus aureus, Staph. aureus A15097 (Meth-Res); overnight 37° C.; read-out: Minimum Inhibitory Concentration (M.I.C.)
From the text: as §1

Ser. marcescens A-20019 = assay: MIC, tube dilution, Serratia marcescens A20019; type: cell-based; conditions: Serratia marcescens, A20019, Serratia marcescens A20019; overnight 37° C.; read-out: Minimum Inhibitory Concentration (M.I.C.)
From the text: as §1

Ent. cloacae A-9656 = assay: MIC, tube dilution, Enterobacter cloacae A9656; type: cell-based; conditions: Enterobacter cloacae, A9656, Enterobacter cloacae A9656; overnight 37° C.; read-out: Minimum Inhibitory Concentration (M.I.C.)
From the text: as §1

[3] = tested on: Staph. aureus A-9537 and 50% serum; assay: MIC, tube dilution, Staph. aureus A9537 + 50% serum; type: cell-based, Staphylococcus aureus; conditions: Staphylococcus aureus, overnight 37° C., read-out: Minimum Inhibitory Concentration (M.I.C.)
From the text: as §1

Pr. morganii A-15153 = assay: MIC, tube dilution, Proteus morganii A15153; type: cell-based; conditions: Morganella morganii, A15153, Proteus morganii A15153; overnight 37° C.; read-out: Minimum Inhibitory Concentration (M.I.C.)
From the text: as §1

Str. pneumoniae A-9585 = assay: MIC, tube dilution, Streptococcus pneumoniae A9585; type: cell-based; conditions: Streptococcus pneumoniae, A9585, Str. pneumoniae A9585; overnight 37° C., Nutrient Broth; read-out: Minimum Inhibitory Concentration (M.I.C.)
From the text: as §1

Staph. aureus A-9537 = assay: MIC, tube dilution, Staphylococcus aureus A9537; type: cell-based; conditions: Staphylococcus aureus, A9537, Staph. aureus A9537; overnight 37° C., Nutrient Broth; read-out: Minimum Inhibitory Concentration (M.I.C.)
From the text: as §1

Ps. aeruginosa A-21213 = assay: MIC, tube dilution, Pseudomonas aeruginosa A21213; type: cell-based; conditions: Pseudomonas aeruginosa, A21213, Pseudomonas aeruginosa A21213; overnight 37° C.; read-out: Minimum Inhibitory Concentration (M.I.C.)
From the text: as §1

Proteus vulgaris A21559 = assay: MIC, tube dilution, Proteus vulgaris A21559; type: cell-based; conditions: Proteus vulgaris, A21559, Proteus vulgaris A21559; overnight 37° C.; read-out: Minimum Inhibitory Concentration (M.I.C.)
From the text: as §1

[4] = tested on: Staph. aureus (Pen-Res) A-9606; assay: MIC, tube dilution, Staphylococcus aureus A9606 (Pen-Res); type: cell-based; conditions: Staphylococcus aureus, Staph. aureus A9606 (Pen-Res); overnight 37° C.; read-out: Minimum Inhibitory Concentration (M.I.C.)
From the text: as §1

| SMILES | MIC (Ent. cloacae A-9659) | MIC (K. pneumoniae A-15130) | MIC (Pr. mirabilis A-9900) | MIC (E. coli A-15119) | MIC (Str. faecalis A-20688) | MIC [1] | MIC (Str. pyogenes A-9604) | MIC (Ps. aeruginosa A-9843A) | MIC (Proteus rettgeri A21203) | MIC (E. coli A-20341-1) | MIC [2] | MIC (Ser. marcescens A-20019) | MIC (Ent. cloacae A-9656) | MIC [3] | MIC (Pr. morganii A-15153) | MIC (Str. pneumoniae A-9585) | MIC (Staph. aureus A-9537) | MIC (Ps. aeruginosa A-21213) | MIC (Proteus vulgaris A21559) | MIC [4] |
| --- | --- | --- | --- | --- | --- | --- | --- | --- | --- | --- | --- | --- | --- | --- | --- | --- | --- | --- | --- | --- |
| NCc1ccc(CC2=C(C(=O)O)N3C(=O)CC3S2)cc1 (centres unmarked) [Example 85, 2-(p-Aminomethylbenzyl)penem-3-carboxylic Acid] | 8 µg/mL (≈ 27.6 µM) | 32 µg/mL (≈ 110 µM) | 4 µg/mL (≈ 13.8 µM) | 4 µg/mL (≈ 13.8 µM) | 16 µg/mL (≈ 55.1 µM) | > 63 µg/mL | 0.06 µg/mL (≈ 0.207 µM) | 8 µg/mL (≈ 27.6 µM) | 4 µg/mL (≈ 13.8 µM) | 63 µg/mL (≈ 217 µM) | > 63 µg/mL | 4 µg/mL (≈ 13.8 µM) | 8 µg/mL (≈ 27.6 µM) | 1 µg/mL | 4 µg/mL (≈ 13.8 µM) | 0.06 µg/mL (≈ 0.207 µM) | 0.06 µg/mL (≈ 0.207 µM) | 63 µg/mL (≈ 217 µM) | > 63 µg/mL | 16 µg/mL (≈ 55.1 µM) |
| NCC(=O)OCC1=C(C(=O)O)N2C(=O)CC2S1 (centres unmarked) [Example 81, 2-Aminoacetoxymethyl-penem-3-carboxylic Acid] | 8 µg/mL (≈ 31 µM) | 8 µg/mL (≈ 31 µM) | 4 µg/mL (≈ 15.5 µM) | 2 µg/mL (≈ 7.74 µM) | 63 µg/mL (≈ 244 µM) | > 63 µg/mL | 16 µg/mL (≈ 62 µM) | 63 µg/mL (≈ 244 µM) | 8 µg/mL (≈ 31 µM) | 32 µg/mL (≈ 124 µM) | 8 µg/mL (≈ 31 µM) | 8 µg/mL (≈ 31 µM) | 8 µg/mL (≈ 31 µM) | > 32 µg/mL | 8 µg/mL (≈ 31 µM) | 2 µg/mL (≈ 7.74 µM) | 32 µg/mL (≈ 124 µM) | > 63 µg/mL | 16 µg/mL (≈ 62 µM) | 2 µg/mL (≈ 7.74 µM) |
| CC1=C(C(=O)O)N2C(=O)[C@H]([C@H]3COC(C)(C)O3)[C@H]2S1 (relative stereo) [Example 104, (4'S,5R,6S and 4'R,5S,6R) 6-(2',2'-Dimethyl-1',3'-dioxolan-4'-yl)-2-methylpenem-3-carboxylic Acid (Isomer B)] | > 63 µg/mL | > 63 µg/mL | > 63 µg/mL | > 63 µg/mL | 63 µg/mL (≈ 221 µM) | > 63 µg/mL | 32 µg/mL (≈ 112 µM) | 63 µg/mL (≈ 221 µM) | 63 µg/mL (≈ 221 µM) | > 63 µg/mL | 63 µg/mL (≈ 221 µM) | > 63 µg/mL | > 63 µg/mL | > 32 µg/mL | > 63 µg/mL | 16 µg/mL (≈ 56.1 µM) | 63 µg/mL (≈ 221 µM) | 63 µg/mL (≈ 221 µM) | > 63 µg/mL | 63 µg/mL (≈ 221 µM) |
| NCC[S+]([O-])CC1=C(C(=O)O)N2C(=O)C[C@H]2S1 (some centres unmarked) [Example 101, 2-(2-Aminoethylsulfinylmethyl) penem-3-carboxylic Acid] | 32 µg/mL (≈ 116 µM) | 32 µg/mL (≈ 116 µM) | 8 µg/mL (≈ 28.9 µM) | 8 µg/mL (≈ 28.9 µM) | > 63 µg/mL | > 63 µg/mL | 0.5 µg/mL (≈ 1.81 µM) | 63 µg/mL (≈ 228 µM) | 16 µg/mL (≈ 57.9 µM) | 32 µg/mL (≈ 116 µM) | 63 µg/mL (≈ 228 µM) | 32 µg/mL (≈ 116 µM) | 63 µg/mL (≈ 228 µM) | 4 µg/mL | 16 µg/mL (≈ 57.9 µM) | 0.5 µg/mL (≈ 1.81 µM) | 0.5 µg/mL (≈ 1.81 µM) | 63 µg/mL (≈ 228 µM) | 16 µg/mL (≈ 57.9 µM) | 4 µg/mL (≈ 14.5 µM) |
